# Experimental data published in paper PMC9226319, “Peripherally restricted transthyretin-based delivery system for probes and therapeutics avoiding opioid-related side effects” (Nature Communications, 2022).
# Where “and” joins values, the source holds several entries; their conditions need not be identical. Equal values may be shown once. Read-outs that look alike come from different tables or passages of the source.
# Key:
# [1] = target: TTR in human serum (Homo sapiens, UniProt P02766); assay: TTR serum fluorescent probe exclusion (FPE) selectivity assay; assay type: binding; settings: ligand 10 µM; for % TTR occupancy in human serum: FPE probe 3.6 µM, 3 h reading relative to probe alone, text mean ± s.d., table replicates; for %FPE probe fluorescence: human serum, replicates
# [2] = rat, single IV bolus 4.84 µmol/kg
# [3] = rat, single SC dose 16 µmol/kg
# [4] = in vivo; settings: male, Sprague Dawley, rat, iv, 4.84 umol/kg
# [5] = in vivo; settings: male, Sprague Dawley, rat, sc, 16 umol/kg
% TTR occupancy in human serum [1],%FPE probe fluorescence ([1]; time 0.000 h),%FPE probe fluorescence ([1]; time 0.083 h),%FPE probe fluorescence ([1]; time 0.250 h),%FPE probe fluorescence ([1]; time 0.500 h),SMILES,%FPE probe fluorescence ([1]; time 1.000 h),%FPE probe fluorescence ([1]; time 1.250 h),%FPE probe fluorescence ([1]; time 1.500 h),%FPE probe fluorescence ([1]; time 1.750 h),%FPE probe fluorescence ([1]; time 2.000 h),%FPE probe fluorescence ([1]; time 2.250 h),%FPE probe fluorescence ([1]; time 2.500 h),%FPE probe fluorescence ([1]; time 2.750 h),%FPE probe fluorescence ([1]; time 3.000 h),%FPE probe fluorescence ([1]; time 3.500 h),%FPE probe fluorescence ([1]; time 3.750 h),%FPE probe fluorescence ([1]; time 4.000 h),%FPE probe fluorescence ([1]; time 4.250 h),%FPE probe fluorescence ([1]; time 4.500 h),%FPE probe fluorescence ([1]; time 4.750 h),also measured
97.40% and 95.62% and 96.92% and 97.81%,0.000%,0.700% and 0.333% and 1.346% and -0.971%,0.446% and 0.461% and 3.649% and -0.301%,-1.954% and 0.832% and 3.724% and 2.441%,"Cc1n[nH]c(C)c1CCCOc1cc(C(=O)O)ccc1F [AG10, reference compound]",-0.363% and 4.377% and 2.966% and 3.350%,2.954% and 2.394% and 3.246% and -1.477%,2.170% and 0.641% and 2.641% and 0.126%,0.743% and 3.255% and 1.620% and 2.521%,4.231% and 0.837% and 2.557% and 0.855%,5.793% and 2.286% and 2.057% and 0.029%,6.054% and 2.118% and 3.144% and 0.438%,2.727% and 2.921% and 3.595% and 1.032%,2.597% and 4.380% and 3.077% and 2.193%,3.724% and 3.796% and 4.505% and 2.484%,3.879% and 3.578% and 5.075% and 1.835%,3.514% and 5.359% and 4.237% and 1.611%,3.887% and 3.398% and 4.915% and 2.063%,4.733% and 4.892% and 5.145% and 3.486%,6.115% and 5.517% and 7.470% and 4.138%,%FPE probe fluorescence ([1]; time 5.000 h): 6.088% and 5.023% and 7.566% and 3.162%; %FPE probe fluorescence ([1]; time 5.250 h): 5.909% and 5.424% and 7.406% and 4.467%; %FPE probe fluorescence ([1]; time 5.500 h): 6.587% and 5.102% and 7.881% and 3.568%; %FPE probe fluorescence ([1]; time 5.750 h): 6.453% and 4.461% and 7.648% and 5.604%; %FPE probe fluorescence ([1]; time 6.000 h): 4.737% and 6.705% and 8.837% and 3.939%
47.45% and 46.83% and 51.34% and 50.15%,0.000%,1.299% and -1.005% and 0.704% and 3.155%,4.449% and 1.397% and 6.031% and 9.730%,5.578% and 5.344% and 9.630% and 15.940%,"O=C(O)c1ccc2nc(-c3cc(Cl)cc(Cl)c3)oc2c1 [Tafamidis, reference compound]",17.103% and 15.634% and 16.546% and 22.347%,23.082% and 19.584% and 22.707% and 26.257%,27.125% and 23.274% and 25.961% and 28.688%,32.902% and 29.136% and 30.570% and 32.212%,35.080% and 33.047% and 36.500% and 37.379%,40.669% and 40.161% and 39.661% and 42.469%,46.027% and 42.493% and 42.354% and 44.462%,50.625% and 47.468% and 47.510% and 47.875%,53.169% and 48.662% and 49.846% and 52.554%,60.381% and 56.275% and 57.091% and 59.281%,61.493% and 61.080% and 58.641% and 60.288%,65.122% and 63.511% and 61.468% and 61.493%,66.463% and 64.406% and 63.696% and 64.254%,68.966% and 68.075% and 65.963% and 66.999%,72.160% and 67.655% and 67.312% and 67.678%,% TTR occupancy in human serum ([1]; listed as tafamidis): 48.9 ± 2.2%; %FPE probe fluorescence ([1]; time 5.000 h): 70.882% and 70.753% and 66.636% and 68.909%; %FPE probe fluorescence ([1]; time 5.250 h): 72.950% and 73.018% and 69.707% and 71.230%; %FPE probe fluorescence ([1]; time 5.500 h): 75.965% and 73.410% and 70.521% and 70.704%; %FPE probe fluorescence ([1]; time 5.750 h): 76.955% and 73.721% and 71.869% and 74.221%; %FPE probe fluorescence ([1]; time 6.000 h): 78.267% and 76.878% and 72.520% and 75.177%
–,–,–,–,–,"C=CCN1CC[C@]23c4c5ccc(O)c4O[C@H]2C(=O)CC[C@@]3(O)[C@H]1C5 [Naloxone, reference compound]",–,–,–,–,–,–,–,–,–,–,–,–,–,–,–,k [2]: 0.81 ± 0.13 h⁻¹; k [3]: 1.03 ± 0.1 h⁻¹; AUC(0-inf) [4]: 1.46 ± 0.257 µM·h; Vd [4]: 1.23 ± 0.42 L/kg; clearance [4]: 56.5 mL/min/kg; half-life [4]: 52.2 ± 7.8 min; AUC(0-inf) [5]: 1.76 ± 0.237 µM·h; CL/F [5]: 152 mL/min/kg; Vd/F [5]: 8.94 ± 2.08 L/kg; half-life [5]: 40.2 ± 4.2 min
